Assay [1] can be described thus: Calcium titration curve of MG-PEG7-Rhod2 sodium salt with dL5, fluorescence by plate reader. It counts as binding. Conditions: with dL5 (tandem dimer of L5-MG E52D L91S); free Ca 0-39 μM calibration buffers; FIG. 15. The method, then: A calcium titration curve for MG-PEG7-Rhod2 sodium salt (compound 18 of Example 8, was measured.
Compound 18 and 2 μL of dL5 (A tandem dimer of L5-MG E52D L91S (FIG. 1A) separated by a G4S linker) is dissolved in each 600 μL of 0 calcium solution^1 (solution A, Invitrogen™ Cat. no. C-3008MP Calcium Calibration Buffer Kit #1) and 600 μL 39 calcium solution (solution B, Invitrogen™ Cat. no. C-3008MP Calcium Calibration Buffer Kit #1). Each volume of A and B solutions was added into 96 well black plate as described in Table 1.
And then, each solution was measured fluorescence by plate reader (TECAN safire2).

The test system of assay [2] is malachite green binding FAP clone. The assay is described as follows: Fluorescence correlation spectroscopy (FCS) of dye with MG-binding FAP. Conditions: 500-fold molar excess of protein, FIG. 6. The text has this: To assess the feasibility of this approach, two key criteria have been met. First, the spectral properties of Rhod-2 are almost identical to the CY3 that has already been used as a successful donor molecule. Second, the rhodamine moiety, which is structurally similar to malachite green, has been shown not to bind or block binding of the MG-binding FAP module. […] These findings support the design of this probe.

Assay [3] deals with selected modules (FAP) that activate malachite green. In words: Fluorogen activation by selected FAP modules (switching ratio). To be noted: in buffer. The class given is biochemical. The text has this: Malachite green can serve as an acceptor, as we already have selected modules that activate it with switching ratios of >15,000 fold in buffer. Additional fluorogens may be designed and synthesized. Unsymmetric polymethine dyes, and analogs of indocyanine green may be used as fluorogens, as can many of the polarity sensing dyes (e.g. merocyanine and styryl dyes) with far-red and near IR emission. Fluorogens are screened for nonspecific activation in cell lysate before incorporation into the biosensor composition. Quenching and activation by selected FAP modules are characterized in buffer and cell lysate to determine the activation ratio. FAP/biosensor pairs with acceptable switching ratios are characterized by FCS and TIRF-single molecule microscopy.

The text below walks through data of patent publication US9995679B2, “Targeted probes of cellular physiology” (Carnegie Mellon University, priority 2010, dated 2018).

“Also recorded” adds a separate entry of the source. Some results are limits rather than exact numbers.

With MG-PEG7-Rhod2 Sodium Salt [Compound 18], the “mid-point for calcium binding (ratio of rhod2 excitation peak to MG excitation peak at ~640 nm vs free calcium)” value in assay [1] stood at 0.5 micro molar. Turning to `CCN(CC)c1ccc2c(-c3ccccc3C(=O)O)c3ccc(=[N+](CC)CC)cc-3oc2c1.[Cl-]` [rhodamine B], the “binding to / inhibition of MG binding of the malachite green binding FAP” value in assay [2] is “does not associate with the malachite green binding clone; also recorded: neither binds to nor inhibits normal binding”. In the case of `CN(C)c1ccc(C(=C2C=CC(=[N+](C)C)C=C2)c2ccccc2)cc1` [Malachite green], the “switching ratio (fluorescence activation by FAP)” value in assay [3] is listed as > 15,000 fold.
